In patent publication US7361666B2, “Heterocyclic analgesic compounds and methods of use thereof” (Sepracor, Inc., priority 1999, dated 2008):
pIC50: −log10 of the molar value.

How the values were obtained:
[1] = target: δ opioid receptor (Homo sapiens, UniProt P41143); experiment: Opiate receptor binding (δ); details: procedure of Simonin et al.
Method: (§1) The opioid (μ, κ, δ) receptor-binding capabilities of compounds described herein were determined according to the procedures outlined by Wang et al. (FEBS Letters 1994, 338, 217), Maguire et al. (Eur. J. Pharmacol. 1992, 213, 219), and Simonin et al. (Mol. Pharmacol. 1994, 46, 1015).

[2] = target: κ opioid receptor (Cavia porcellus, UniProt P41144); experiment: Opiate receptor binding (κ); details: procedure of Maguire et al.
Method: as §1

[3] = target: μ opioid receptor (Homo sapiens, UniProt P35372); experiment: Opiate receptor binding (μ); details: procedure of Wang et al.
Description: Another assay useful in the present invention concerns determining the ability of a ligand to bind to a biological receptor utilizing a technique well known in the art referred to as a radioligand binding assay. This assay accurately determines the specific binding of a radioligand to a targeted receptor through the delineation of its total and nonspecific binding components. Total binding is defined as the amount of radioligand that remains following the rapid separation of the radioligand bound in a receptor preparation (cell homogenates or recombinate receptors) from that which is unbound. The nonspecific binding component is defined as the amount of radioligand that remains following separation of the reaction mixture consisting of receptor, radioligand and an excess of unlabeled ligand. Under this condition, the only radioligand that remains represents that which is bound to components other that receptor. The specific radioligand bound is determined by subtracting the nonspecific from total radioactivity bound. For a specific example of radioligand binding assay for μ-opioid receptor, see Wang, J. B. et al. FEBS Letters 1994, 338, 217.
as §1

Sequence of δ opioid receptor (P41143 whole entry): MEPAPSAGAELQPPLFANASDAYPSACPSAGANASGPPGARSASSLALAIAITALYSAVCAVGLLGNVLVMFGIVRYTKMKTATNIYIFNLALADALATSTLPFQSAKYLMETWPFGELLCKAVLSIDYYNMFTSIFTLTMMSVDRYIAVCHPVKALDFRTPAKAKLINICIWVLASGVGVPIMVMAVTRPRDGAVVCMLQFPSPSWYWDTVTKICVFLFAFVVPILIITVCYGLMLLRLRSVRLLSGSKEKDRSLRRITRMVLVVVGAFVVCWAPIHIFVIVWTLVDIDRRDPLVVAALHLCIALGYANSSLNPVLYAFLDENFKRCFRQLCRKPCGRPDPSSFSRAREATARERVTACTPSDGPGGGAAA
Sequence of μ opioid receptor (P35372 whole entry): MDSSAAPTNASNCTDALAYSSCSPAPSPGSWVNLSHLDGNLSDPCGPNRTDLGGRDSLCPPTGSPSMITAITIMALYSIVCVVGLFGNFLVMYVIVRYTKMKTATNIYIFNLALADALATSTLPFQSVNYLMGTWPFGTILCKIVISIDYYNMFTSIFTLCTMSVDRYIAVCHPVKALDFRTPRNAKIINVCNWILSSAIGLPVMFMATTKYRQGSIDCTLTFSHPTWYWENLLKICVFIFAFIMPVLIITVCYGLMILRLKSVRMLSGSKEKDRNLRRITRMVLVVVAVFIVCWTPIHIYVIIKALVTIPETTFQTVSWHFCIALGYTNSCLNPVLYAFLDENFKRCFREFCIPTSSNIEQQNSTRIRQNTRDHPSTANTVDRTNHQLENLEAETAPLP
Sequence of κ opioid receptor (P41144 whole entry): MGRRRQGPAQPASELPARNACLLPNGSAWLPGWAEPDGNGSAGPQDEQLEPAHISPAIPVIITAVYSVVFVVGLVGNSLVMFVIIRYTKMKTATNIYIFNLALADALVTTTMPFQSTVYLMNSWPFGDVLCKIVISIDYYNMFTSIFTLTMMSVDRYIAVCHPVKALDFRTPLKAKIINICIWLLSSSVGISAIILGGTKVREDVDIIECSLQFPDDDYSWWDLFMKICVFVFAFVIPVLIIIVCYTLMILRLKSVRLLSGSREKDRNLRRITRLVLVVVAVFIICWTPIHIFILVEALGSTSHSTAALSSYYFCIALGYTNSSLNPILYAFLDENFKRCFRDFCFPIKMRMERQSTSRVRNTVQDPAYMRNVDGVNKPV

Structure (SMILES)	pIC50 [1]	pIC50 [2]	pIC50 [3]
CCC(=O)N(CC1CCCN(CCc2ccccc2)C1)C(C)c1ccccc1 (single isomer, unassigned) [Compound 220, N-(1-Phenethyl-piperidin-3-ylmethyl)-N-(1-phenyl-ethyl)-propionamide]	< 6.00	> 6.00	> 6.00
CCC(=O)N(CC1CCCN(CCc2ccccc2)C1)C(C)c1ccccc1 (single isomer, unassigned) [Compound 221, N-(1-Phenethyl-piperidin-3-ylmethyl)-N-(1-phenyl-ethyl)-propionamide]	< 6.00	> 6.00	> 6.00
CCC(=O)N(CC1CCCN(CCc2ccccc2)C1)C(C)c1ccccc1 (single isomer, unassigned) [Compound 222, N-(1-Phenethyl-piperidin-3-ylmethyl)-N-(1-phenyl-ethyl)-propionamide]	< 6.00	< 6.00	< 6.00
CCC(=O)N(CC1CCCN(CCc2ccccc2)C1)C(C)c1ccccc1 (single isomer, unassigned) [Compound 223, N-(1-Phenethyl-piperidin-3-ylmethyl)-N-(1-phenyl-ethyl)-propionamide]	< 6.00	< 6.00	> 7.00
CCC(=O)N(CC1CCCN(CCc2ccccc2)C1)C(C)c1ccccc1 (single isomer, unassigned) [Compound 224, N-(1-Phenethyl-piperidin-3-ylmethyl)-N-(1-phenyl-ethyl)-propionamide]	< 6.00	< 6.00	> 6.00
CCC(=O)N(CC1CCCN(CCc2ccccc2)C1)C(C)c1ccccc1 (single isomer, unassigned) [Compound 225, N-(1-Phenethyl-piperidin-3-ylmethyl)-N-(1-phenyl-ethyl)-propionamide]	< 6.00	< 6.00	> 6.00
